From PubChem BioAssay AID248 (DTP/NCI, 2004)
Where “and” joins values, the source holds several entries; their conditions need not be identical. Equal entries are not always repeated. Toxic doses and inconclusive results are not listed. Rule as the data show it: active = T/C of 150% or more; inactive = T/C below 125%.

Tested on: L1210 leukemia ip in BDF1 mice, survival T/C
Experiment: NCI In Vivo Anticancer Drug Screen. Data for tumor model L1210 Leukemia (intraperitoneal) in B6D2F1 (BDF1) mice
Details: endpoint: mean survival time, higher = longer survival
How it was run: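 Survival endpoint. Drug-treated group vs vehicle group, expressed as T divided by C. Tumor passaged by transplantation.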

[1] = dose: 100.0 mg/kg/injection, schedule: Q04DX003 (ip), vehicle: saline
[2] = dose: 100.0 mg/kg/injection, schedule: Q01DX009 (ip), vehicle: saline with Tween-80
[3] = dose: 100.0 mg/kg/injection, schedule: Q04DX003 (ip), vehicle: Klucel (hydroxypropylcellulose) (HPC)
[4] = dose: 200.0 mg/kg/injection, schedule: Q01DX009 (ip), vehicle: saline with Tween-80
[5] = dose: 200.0 mg/kg/injection, schedule: Q04DX003 (ip), vehicle: Klucel (hydroxypropylcellulose) (HPC)
[6] = dose: 400.0 mg/kg/injection, schedule: Q04DX003 (ip), vehicle: Klucel (hydroxypropylcellulose) (HPC)
[7] = dose: 50.0 mg/kg/injection, schedule: Q04DX002 (ip), vehicle: Klucel (hydroxypropylcellulose) (HPC)
[8] = dose: 100.0 mg/kg/injection, schedule: Q04DX002 (ip), vehicle: Klucel (hydroxypropylcellulose) (HPC)
[9] = dose: 100.0 mg/kg/injection, schedule: Q01DX001 (ip), vehicle: saline
[10] = dose: 200.0 mg/kg/injection, schedule: Q01DX001 (ip), vehicle: saline
[11] = dose: 400.0 mg/kg/injection, schedule: Q01DX001 (ip), vehicle: saline
[12] = dose: 25.0 mg/kg/injection, schedule: Q01DX009 (ip), vehicle: saline with Tween-80
[13] = dose: 50.0 mg/kg/injection, schedule: Q01DX009 (ip), vehicle: saline with Tween-80
[14] = dose: 25.0 mg/kg/injection, schedule: Q04DX002 (ip), vehicle: Klucel (hydroxypropylcellulose) (HPC)
[15] = dose: 200.0 mg/kg/injection, schedule: Q04DX002 (ip), vehicle: Klucel (hydroxypropylcellulose) (HPC)
[16] = dose: 100.0 mg/kg/injection, schedule: Q01DX009 (ip), vehicle: Klucel (hydroxypropylcellulose) (HPC)
[17] = dose: 200.0 mg/kg/injection, schedule: Q01DX009 (ip), vehicle: Klucel (hydroxypropylcellulose) (HPC)
[18] = dose: 400.0 mg/kg/injection, schedule: Q01DX009 (ip), vehicle: Klucel (hydroxypropylcellulose) (HPC)

Measured: T/C

CC(=O)N(C)c1ccc(NC(=O)Nc2ccc(F)cc2)cc1
inactive: dose: 100.0 mg/kg/injection, schedule: Q01DX001 (ip), vehicle: carboxymethylcellulose (CMC) 97 % of control | dose: 100.0 mg/kg/injection, schedule: Q01DX009 (ip), vehicle: carboxymethylcellulose (CMC) 95 % of control and 103 % of control | dose: 100.0 mg/kg/injection, schedule: Q04DX002 (ip), vehicle: carboxymethylcellulose (CMC) 95 % of control and 97 % of control and 90 % of control | dose: 100.0 mg/kg/injection, schedule: Q04DX003 (ip), vehicle: carboxymethylcellulose (CMC) 104 % of control | dose: 200.0 mg/kg/injection, schedule: Q01DX001 (ip), vehicle: carboxymethylcellulose (CMC) 96 % of control | dose: 200.0 mg/kg/injection, schedule: Q01DX009 (ip), vehicle: carboxymethylcellulose (CMC) 101 % of control and 103 % of control | dose: 200.0 mg/kg/injection, schedule: Q04DX002 (ip), vehicle: carboxymethylcellulose (CMC) 93 % of control and 96 % of control and 87 % of control | dose: 200.0 mg/kg/injection, schedule: Q04DX003 (ip), vehicle: carboxymethylcellulose (CMC) 107 % of control | dose: 400.0 mg/kg/injection, schedule: Q01DX001 (ip), vehicle: carboxymethylcellulose (CMC) 106 % of control | dose: 400.0 mg/kg/injection, schedule: Q01DX009 (ip), vehicle: carboxymethylcellulose (CMC) 95 % of control and 101 % of control | dose: 400.0 mg/kg/injection, schedule: Q04DX002 (ip), vehicle: carboxymethylcellulose (CMC) 97 % of control and 98 % of control and 104 % of control | dose: 400.0 mg/kg/injection, schedule: Q04DX003 (ip), vehicle: carboxymethylcellulose (CMC) 98 % of control

C#CCOC(=O)NCC
inactive: [1] 101 % of control | dose: 200.0 mg/kg/injection, schedule: Q04DX003 (ip), vehicle: saline 102 % of control | dose: 400.0 mg/kg/injection, schedule: Q04DX003 (ip), vehicle: saline 96 % of control

CN(C)c1ccc2cc(S(=O)(=O)O)cc(O)c2c1
inactive: [2] 102 % of control | [3] 105 % of control | [4] 96 % of control | [5] 95 % of control | dose: 400.0 mg/kg/injection, schedule: Q01DX009 (ip), vehicle: saline with Tween-80 94 % of control | [6] 93 % of control

O=[N+]([O-])c1ccc(Nc2ccccc2)c([N+](=O)[O-])c1
inactive: [7] 103 % of control | [8] 92 % of control

Cn1nc(SCc2ccccc2)c(N)nc1=O
inactive: [9] 102 % of control | [10] 100 % of control | [11] 101 % of control

CCOC(=O)CSC1=NCCN1
inactive: [9] 105 % of control | [10] 113 % of control | [11] 105 % of control

COc1cc(N)c([N+](=O)[O-])c(OC)c1
inactive: [12] 98 % of control | [13] 104 % of control | [2] 100 % of control | dose: 100.0 mg/kg/injection, schedule: Q04DX003 (ip), vehicle: saline with Tween-80 106 % of control

O=C(c1ccccc1)c1c[nH]c2c(O)ccc(O)c12
inactive: dose: 12.5 mg/kg/injection, schedule: Q04DX002 (ip), vehicle: Klucel (hydroxypropylcellulose) (HPC) 91 % of control | [14] 95 % of control | [7] 95 % of control

CCOC(=O)CNc1ccc(Cl)cc1
inactive: [14] 98 % of control and 106 % of control | [7] 102 % of control | [8] 101 % of control and 91 % of control | [15] 102 % of control

Clc1ccc2c(c1)C(Br)c1cc(Cl)cc(Cl)c1-2 (centres undefined)
inactive: [12] 102 % of control | dose: 25.0 mg/kg/injection, schedule: Q04DX003 (ip), vehicle: saline 102 % of control | [13] 94 % of control | dose: 50.0 mg/kg/injection, schedule: Q04DX003 (ip), vehicle: saline 102 % of control | dose: 100.0 mg/kg/injection, schedule: Q01DX001 (ip), vehicle: acetone 94 % of control | [2] 93 % of control | [1] 91 % of control

Cc1ccc(C)c(NC(=O)c2ccccc2C(=O)O)c1
inactive: [16] 102 % of control | [3] 101 % of control | [17] 104 % of control | [5] 102 % of control | [18] 93 % of control | [6] 98 % of control

Cc1ccc(S(=O)(=O)OC/C(=C(/c2ccccc2)c2ccc(Cl)cc2)c2ccccc2)cc1
inactive: dose: 6.25 mg/kg/injection, schedule: Q04DX003 (ip), vehicle: saline with Tween-80 96 % of control | dose: 12.5 mg/kg/injection, schedule: Q04DX003 (ip), vehicle: saline with Tween-80 98 % of control | dose: 25.0 mg/kg/injection, schedule: Q04DX003 (ip), vehicle: saline with Tween-80 95 % of control

CCCCNC(=O)Nc1c(C)cccc1Cl
inactive: [16] 101 % of control | [3] 101 % of control | [17] 90 % of control | [5] 97 % of control | [18] 87 % of control | [6] 88 % of control

CSc1nc2ncncc2c(=O)[nH]1
inactive: dose: 100.0 mg/kg/injection, schedule: Q01DX001 (ip), vehicle: Klucel (hydroxypropylcellulose) (HPC) 96 % of control | [16] 98 % of control | dose: 200.0 mg/kg/injection, schedule: Q01DX001 (ip), vehicle: Klucel (hydroxypropylcellulose) (HPC) 100 % of control | [17] 102 % of control | dose: 400.0 mg/kg/injection, schedule: Q01DX001 (ip), vehicle: Klucel (hydroxypropylcellulose) (HPC) 101 % of control | [18] 95 % of control

CCC1(CC)C2=CCC3C(CCC4(C)C(C(C)CCCC(C)C)CCC34)C2(C)CCC1OC(C)=O (centres undefined)
inactive: dose: 50.0 mg/kg/injection, schedule: Q01DX009 (sc), vehicle: steriod suspending solution 90 % of control | dose: 100.0 mg/kg/injection, schedule: Q01DX009 (sc), vehicle: steriod suspending solution 87 % of control | dose: 100.0 mg/kg/injection, schedule: Q04DX003 (sc), vehicle: steriod suspending solution 107 % of control | dose: 200.0 mg/kg/injection, schedule: Q01DX009 (sc), vehicle: steriod suspending solution 100 % of control | dose: 200.0 mg/kg/injection, schedule: Q04DX003 (sc), vehicle: steriod suspending solution 86 % of control | dose: 400.0 mg/kg/injection, schedule: Q04DX003 (sc), vehicle: steriod suspending solution 96 % of control

N#CC(=C1c2ccccc2-c2ccccc21)c1ccccc1
inactive: [3] 100 % of control | [5] 105 % of control | [6] 98 % of control

CC(=O)OCC(=O)c1cc(OC(C)=O)c(OC(C)=O)c(OC(C)=O)c1
inactive: [9] 91 % of control | [11] 94 % of control

COC(C(=O)O)c1cccc2ccccc12 (centres undefined)
inactive: [8] 113 % of control | [15] 109 % of control | dose: 400.0 mg/kg/injection, schedule: Q04DX002 (ip), vehicle: Klucel (hydroxypropylcellulose) (HPC) 98 % of control

Cc1ccc([N+](=O)[O-])cc1NC(=O)SCCOC(=O)COc1ccc(Cl)cc1
inactive: [13] 97 % of control | [2] 97 % of control and 106 % of control | [4] 103 % of control

CCOc1ccc(/C=N/Nc2c3ccccc3nc3ccccc23)cc1OCC
inactive: [9] 92 % of control | [10] 95 % of control

O=[N+]([O-])c1cc(Cl)c(Cl)c([N+](=O)[O-])c1O
inactive: dose: 25.0 mg/kg/injection, schedule: Q01DX009 (ip), vehicle: acetone 92 % of control | dose: 50.0 mg/kg/injection, schedule: Q01DX009 (ip), vehicle: acetone 97 % of control | dose: 50.0 mg/kg/injection, schedule: Q04DX003 (ip), vehicle: acetone 95 % of control | [9] 95 % of control | dose: 100.0 mg/kg/injection, schedule: Q01DX009 (ip), vehicle: acetone 95 % of control | dose: 100.0 mg/kg/injection, schedule: Q04DX003 (ip), vehicle: acetone 89 % of control | dose: 150.0 mg/kg/injection, schedule: Q01DX009 (ip), vehicle: acetone 100 % of control | [10] 93 % of control

O=CN1CCCC1C(=O)O (centres undefined)
inactive: dose: 25.0 mg/kg/injection, schedule: Q01DX009 (ip), vehicle: water 98 % of control | dose: 50.0 mg/kg/injection, schedule: Q01DX009 (ip), vehicle: water 101 % of control | dose: 100.0 mg/kg/injection, schedule: Q01DX009 (ip), vehicle: water 95 % of control | dose: 200.0 mg/kg/injection, schedule: Q01DX009 (ip), vehicle: water 101 % of control
